How the values were obtained:
Type in all cases: cell-based
[1] = system: Streptococcus pyogenes; assay: MIC by agar dilution, SPYO 152; settings: strain SPYO 152
Text: (§1) The in vitro activity of compounds of this invention can be assessed by standard testing procedures such as the determination of minimum inhibitory concentration (MIC) by agar dilution as described in “Approved Standard.

[2] = system: Moraxella catarrhalis; assay: MIC by agar dilution, MCAT 30607; settings: strain MCAT 30607
Text: as §1

[3] = system: Enterococcus faecalis; assay: MIC by agar dilution, EFAE 9217; settings: strain EFAE 9217
Text: as §1

[4] = system: Staphylococcus epidermidis; assay: MIC by agar dilution, SEPI 30593; settings: strain SEPI 30593
Text: as §1

[5] = system: Streptococcus pneumoniae; assay: MIC by agar dilution, SPNE 9912; settings: strain SPNE 9912
Text: as §1

[6] = system: H. influenzae; assay: MIC by agar dilution, HINF 30063; settings: strain HINF 30063
Text: as §1

[7] = system: Staphylococcus aureus; assay: MIC by agar dilution, SAUR 9213; settings: strain SAUR 9213
Text: as §1

[8] = system: Enterococcus faecium; assay: MIC by agar dilution, EFAE 12712; settings: strain EFAE 12712
Text: as §1

Compound | Antibacterial Activity Minimum Inhibitory Concentration SPYO 152 [1] [µg/mL] | Antibacterial Activity Minimum Inhibitory Concentration MCAT 30607 [2] [µg/mL] | Antibacterial Activity Minimum Inhibitory Concentration EFAE 9217 [3] [µg/mL] | Antibacterial Activity Minimum Inhibitory Concentration SEPI 30593 [4] [µg/mL] | Antibacterial Activity Minimum Inhibitory Concentration SPNE 9912 [5] [µg/mL] | Antibacterial Activity Minimum Inhibitory Concentration HINF 30063 [6] [µg/mL] | Antibacterial Activity Minimum Inhibitory Concentration SAUR 9213 [7] [µg/mL] | Antibacterial Activity Minimum Inhibitory Concentration EFAE 12712 [8] [µg/mL]
CC(=O)NC[C@H]1CN(c2ccc(C3CCS(=O)(=NC(=O)NCc4ccccc4)CC3)c(F)c2)C(=O)O1 (single isomer, unassigned) [Example 34] | 2 | 16 | 4 | 2 | 1 | 32 | 16 | 4
C[N-][S+2]1([O-])CCC(c2ccc(N3CC(CNC(=S)C4CC4)OC3=O)cc2F)CC1 [Example 31, N-[((5S)-3-{3-Fluoro-4-[1-(methylimino)-1-oxidohexahydro-1λ^4-thiopyran-4-yl]phenyl}-2-oxo-1,3-oxazolidin-5-yl)methyl]cyclopropanecarbothioamide, E-isomer] | 1 | 4 | 1 | 1 | 0.5 | 8 | 2 | 2
CCC(=S)NC[C@H]1CN(c2ccc(C3CCS(=N)(=O)CC3)c(F)c2)C(=O)O1 (single isomer, unassigned) [Example 10] | 0.25 | 2 | 0.5 | 0.25 | 0.25 | 2 | 1 | 0.5
CC(=O)NC[C@H]1CN(c2ccc(C3CCS(=O)(=NC(=O)OCc4ccccc4)CC3)c(F)c2)C(=O)O1 (single isomer, unassigned) [Example 33] | 1 | 16 | 4 | 2 | 1 | 64 | 8 | 4
COC(=O)N=S1(=O)CCC(c2ccc(N3C[C@H](CNC(=S)C4CC4)OC3=O)cc2F)CC1 (single isomer, unassigned) [Example 30] | 0.5 | 0.5 | 0.5 | 0.5 | 0.125 | 4 | 1 | 0.5
CC(=O)N=S1(=O)CCC(c2ccc(N3C[C@H](CNC(C)=O)OC3=O)cc2F)CC1 (single isomer, unassigned) [Example 12] | 1 | 8 | 2 | 1 | 0.5 | 16 | 8 | 

Reference: patent US20010046987A1, “Oxazolidinones having a sulfoximine functionality” (priority 1999, published 2001)
